# Organism: Rattus norvegicus
# Experiment: Compound was tested for intrinsic growth hormone(GH) secretory potency in the rat pituitary cell assay
# Assay type: functional
# Details: Pituitary gland cell
row,Compound,EC50 [nM]
1,CC(C)(N)C(=O)N[C@H](Cc1ccccc1)C(=O)N1CCC2(CCc3ccccc32)CC1,250
2,CC(C)(N)C(=O)N[C@H](Cc1ccc2ccccc2c1)C(=O)N1CCC2(CCc3ccccc32)CC1,900
3,CC(C)(N)C(=O)N[C@H](Cc1cccc2ccccc12)C(=O)N1CCC2(CCc3ccccc32)CC1,1100
4,C[C@@H](O)CNC(C)(C)CC(=O)N[C@H](COCc1ccccc1)C(=O)N1CCC2(CCc3ccccc32)CC1,240
5,CC(C)(CC(=O)N[C@H](CCc1ccccc1)C(=O)N1CCC2(CCc3ccccc32)CC1)NC[C@H](O)CO,170
6,CC(C)(N)CC(=O)N[C@H](CCc1ccccc1)C(=O)N1CCC2(CCc3ccccc32)CC1,> 1000
7,CC(C)(N)C(=O)N[C@H](CSCc1ccccc1)C(=O)N1CCC2(CCc3ccccc32)CC1,65
8,C[C@@H](O)CNC(C)(C)CC(=O)N[C@H](CCc1ccccc1)C(=O)N1CCC2(CCc3ccccc32)CC1,200
9,CC(C)(N)CC(=O)N[C@H](COCc1ccccc1)C(=O)N1CCC2(CCc3ccccc32)CC1,> 1000
10,CC(C)(N)C(=O)N[C@H](Cc1csc2ccccc12)C(=O)N1CCC2(CCc3ccccc32)CC1,490

# Source: ChEMBL document CHEMBL1149917, “Peptidomimetic growth hormone secretagogues: synthesis and biological activities of analogs varied at the indole nucleus of the prototypical spiropiperidine L-162,752” (Bioorg Med Chem Lett, 1996)
